Data set [1] has as its system Stage III-V gametocytes (blood stage P. falciparum parasites). In words: In vitro drug activity on gametocytes (AlamarBlue viability assay). The settings on record: read-out: Gametocyte EC50. The class given is cell-based, Plasmodium falciparum. In short, it runs like this: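 Viability was measured by AlamarBlue fluorescence (Ex 525/Em 598 nm) after 24 h dye incubation following 72 h compound exposure at 37° C, 5% CO2. Gametocytes, stage III–V from strains 3D7, HB3 and Dd2, were NAG/Percoll-enriched and plated at 20,000 cells/well.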

Data set [2] concerns Asexual parasites of P. falciparum strain 3D7. Nature of the data set: In vitro drug activity on asexual parasites (SYBR Green assay). It counts as cell-based, Plasmodium falciparum. In short, it runs like this: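 SYBR Green I fluorescence (ex 490, em 520 nm) was read after freeze-thaw lysis and 30 min staining at room temperature. Before that, drug-treated cultures (0.5% parasitemia, 2% hematocrit, DMSO ≤0.5%) were incubated 72 h, in duplicate.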

Another data set is described as follows: PAMPA permeability. The class given is in vitro ADME. On the technique in general: The PAMPA barrier holds no transporters, so it reflects passive diffusion.
For a further data set, the target named is mTOR (Homo sapiens, UniProt P42345). In words: mTOR activity (no method described). The class given is biochemical.
Data set [3] is described as follows: Microsomal stability (rat). It counts as in vitro ADME. The settings on record: rat microsomes.
The nature of a further data set: Solubility at pH 7.4. The class given is physicochemical.

Consider `Nc1ccc(-c2ccc3ncc4ccc(=O)n(-c5ccc(C(=O)N6CCOCC6)cc5)c4c3c2)cn1` [Compound 334], for which the EC50 (in general, the concentration that produces a half-maximal response) in data set [1] was determined as 19.7 nM; in data set [2], 8.21 nM. In addition, the PAMPA Permeability in “PAMPA permeability” was 14.9 ×10⁻⁶ cm/s. This compound also showed a mTOR at mTOR of 0.08872 µM. The “Microsomal Stability (rat) T1/2” value in data set [3] is given as greater than 30.0 min. Moreover, the “Sol @ pH 7.4” value in “Solubility at pH 7.4” is recorded as 30 ug/mL.

With `CNC(=O)c1ccc(-n2c(=O)ccc3cnc4ccc(-c5ccc(N)nc5)cc4c32)cc1` [Compound 335], the values for the EC50 in data set [1] and in data set [2] were 17.7 nM and 14.4 nM, respectively. Further, the PAMPA Permeability in “PAMPA permeability” is less than 2.2 ×10⁻⁶ cm/s. In addition, the mTOR at mTOR is 0.02821 µM. Besides, the “Microsomal Stability (rat) T1/2” value in data set [3] is on record as greater than 30.0 min. In addition, the “Sol @ pH 7.4” value in the data set “Solubility at pH 7.4” is given as 2.8 ug/mL.

For `NC(=O)c1ccc(-n2c(=O)ccc3cnc4ccc(-c5ccc(N)nc5)cc4c32)cc1` [Compound 336], the values for the EC50 in data set [1] and in data set [2] were 41 nM and 10.2 nM, respectively. For the same compound, in the data set “PAMPA permeability”, the PAMPA Permeability is less than 3.6 ×10⁻⁶ cm/s. The mTOR at mTOR was found to be 0.01971 µM. Moreover, the “Microsomal Stability (rat) T1/2” value in data set [3] is reported as greater than 30.0 min. Also, the “Sol @ pH 7.4” value in “Solubility at pH 7.4” is listed as less than 1.0 ug/mL.

With `Cc1ccc(C#N)cc1-n1c(=O)n(C)c2cnc3ccc(-c4ccc(Cl)cc4)cc3c21` [Compound 400], the EC50 in data set [1] was 294 nM; in data set [2], 165 nM. The PAMPA Permeability in the data set “PAMPA permeability” was found to be 1460 ×10⁻⁶ cm/s. Also, at mTOR, the mTOR amounted to 100 µM. In data set [3], the “Microsomal Stability (rat) T1/2” value is on record as greater than 30.0 min. Also, the “Sol @ pH 7.4” value in the data set “Solubility at pH 7.4” is listed as less than 1.0 ug/mL.

For `Cn1c(=O)n(-c2cccc(C#N)c2)c2c3cc(-c4cccc(C#N)c4)ccc3ncc21` [Compound 401], the EC50 worked out at 190 nM in data set [1] and 86.7 nM in data set [2]. This compound displayed a PAMPA Permeability in “PAMPA permeability” of 297 ×10⁻⁶ cm/s. The same compound displayed a mTOR at mTOR of 1.271 µM. Moreover, the “Microsomal Stability (rat) T1/2” value in data set [3] is greater than 30.0 min. In addition, the “Sol @ pH 7.4” value in “Solubility at pH 7.4” is less than 1.0 ug/mL.

As to `Cn1c(=O)n(-c2cccc(C#N)c2)c2c3cc(-c4ccc(F)cc4)ccc3ncc21` [Compound 402], the figures for the EC50 in data set [1] and in data set [2] were 343 nM and 140 nM, respectively. In “PAMPA permeability”, this compound showed a PAMPA Permeability of 223 ×10⁻⁶ cm/s. This compound had a mTOR at mTOR of 53.21 µM. Also, the “Microsomal Stability (rat) T1/2” value in data set [3] is greater than 30.0 min. Besides, the “Sol @ pH 7.4” value in “Solubility at pH 7.4” was 1.9 ug/mL.

Turning to `N#Cc1cccc(-n2c(=O)n(CCO)c3cnc4ccc(-c5ccc(Cl)cc5)cc4c32)c1` [Compound 404], the EC50 in data set [1] worked out at 1640 nM; in data set [2], 681 nM. Besides, the PAMPA Permeability in the data set “PAMPA permeability” was found to be 19.5 ×10⁻⁶ cm/s. This compound displayed a mTOR at mTOR of 50 µM. Moreover, in data set [3], the “Microsomal Stability (rat) T1/2” value is listed as greater than 30.0 min. The “Sol @ pH 7.4” value in the data set “Solubility at pH 7.4” came out at 0.9 ug/mL.

Regarding `CN(C)Cc1ccc(-c2ccc3ncc4c(c3c2)n(-c2cccc(C#N)c2)c(=O)n4C)cc1` [Compound 436], the EC50 in data set [1] stood at 1970 nM; in data set [2], 892 nM. The same compound returned a PAMPA Permeability in “PAMPA permeability” of 767 ×10⁻⁶ cm/s. The mTOR on mTOR worked out at 12.45 µM. Also, the “Microsomal Stability (rat) T1/2” value in data set [3] is greater than 30.0 min. Moreover, the “Sol @ pH 7.4” value in “Solubility at pH 7.4” was 52.9 ug/mL.

Turning to `Cc1ccc(-c2ccc3ncc4c(c3c2)n(-c2cccc(C#N)c2)c(=O)n4C)cc1` [Compound 438], the EC50 in data set [1] is 169 nM; in data set [2] it was 174 nM. Moreover, in the data set “PAMPA permeability”, the PAMPA Permeability was less than 1 ×10⁻⁶ cm/s. In addition, the mTOR on mTOR amounted to 100 µM. In data set [3], the “Microsomal Stability (rat) T1/2” value is 27.2 min. Moreover, the “Sol @ pH 7.4” value in the data set “Solubility at pH 7.4” is reported as less than 1.0 ug/mL.

Consider `Cn1c(=O)n(-c2cccc(C#N)c2)c2c3cc(-c4ccc(N)cc4)ccc3ncc21` [Compound 439], for which the values for the EC50 in data set [1] and in data set [2] were 844 nM and 37.9 nM, respectively. The same compound displayed a PAMPA Permeability in “PAMPA permeability” of 18.4 ×10⁻⁶ cm/s. The compound also returned a mTOR at mTOR of 0.7141 µM. In data set [3], the “Microsomal Stability (rat) T1/2” value is recorded as greater than 30.0 min. In addition, the “Sol @ pH 7.4” value in the data set “Solubility at pH 7.4” came out at 1.4 ug/mL.

The values above are taken from patent publication US11753408B2, “Compounds and method for blocking transmission of malarial parasite” (The United States of America, as represented by the …, priority 2016, dated 2023).
